The results in this text go back to publication PMC10762078, “Role of UPF1-LIN28A interaction during early differentiation of pluripotent stem cells” (Nature Communications, 2024).

Assay [1] relates to CHA15 cells. Nature of the assay: Immunofluorescence counting of OCT4- and NANOG-positive cells (Fig. 6c). To be noted: for NANOG-positive cells, fluorescence quantification, mean / OCT4-positive cells, fluorescence quantification, mean: CHA15, CPP-peptide 10 μM, mean of 4 sets; for NANOG fluorescence, difference between means vs P1 ± SEM / OCT4 fluorescence, difference between means vs P1 ± SEM: CHA15, vs CPP-P1. The class given is cell-based, human. The protocol:
(§1) For CPP-conjugated peptide delivery, HeLa, 293T, and PA-1 cells were incubated with CPP-conjugated peptides or CPP-FITC at 2 μM in DMEM with 10% FBS for 12 h a day before cell harvest. hPSCs were treated with CPP-conjugated peptides at 10 μM in mTeSR Plus Medium, and the peptide-containing medium was changed every day over 10 days. The ROCK inhibitor (Tocris Bioscience, Y-27632) treated-hPSCs were dissociated into single cells using Accutase (Merck, SCR005) and differentiated into ectoderm, mesoderm, and endoderm using the STEMdiff Trilineage Differentiation Kit ([…] Technologies, 05230) following the manufacturer’s protocol. Differentiated cells treated with CPP-conjugated peptides were analysed at 0, 3, and 5 days for ectoderm and endoderm, and at 0, 3, and 4 days for mesoderm.
hPSCs or differentiated cells were fixed in 4% paraformaldehyde (Sigma-Aldrich). After 15–20 min, the cells were washed with 0.1% bovine serum albumin in phosphate-buffered saline (BSA/PBS) thrice and blocked for 1 h by adding 0.3% Triton X-100 (Sigma-Aldrich) and 10% normal goat serum (NGS; Fitzgerald industries, NG22S). After blocking, cells were incubated with the following primary antibodies: anti-UPF1 (Cell Signaling Technology, 12040; 1:500), LIN28A (Cell Signaling Technology, 3978; 1:500), OCT4 (Santa Cruz, sc-5279; 1:500), NANOG (Cell Signaling Technology, 4903; 1:500), DLK1 (GeneTex, GTX60511; 1:500), SOX1 (Cell Signaling Technology, 4194; 1:500), or LHX2 (GeneTex, GTX129241; 1:500). Primary antibodies were incubated overnight at 4 °C followed by incubation with the following secondary antibodies: Cy3 (Jackson ImmunoResearch, 115-165-146; 1:500) or Alexa Fluor 488 (Invitrogen, A-11008; 1:500) followed by the incubation with secondary fluorescence-conjugated antibodies for 1 h. The cells were mounted in […] with DAPI mounting medium (Vector Laboratories, H1200).
Immunofluorescence staining, proximity ligation assay imaging, and cell-penetrating efficiency of CPP-FITC were imaged with a confocal laser scanning microscope (Leica, TSC SP5) or immunofluorescence microscope (Leica, DM5000B). Z-stacks were captured, with sections spanning the entire cell. The LAS X Life Science program was used to obtain the maximum intensity projections and cross-sections of the confocal images.

In assay [2] the test system is CHA15 cells. Kind of assay: RT-qPCR of indicated transcripts (NMD targets, pluripotency markers) in CPP-peptide-treated CHA15 cells (Supplementary Fig. 6d). The class given is cell-based, human. To be noted: Fig. s6d; for DLK1 mRNA level, mean / FRZB mRNA level, mean / GLI2 mRNA level, mean / MAPK7 mRNA level, mean / NANOG mRNA level, mean / PDZD4 mRNA level, mean / POU5F1 mRNA level, mean / SIX3 mRNA level, mean / SLC7A5 mRNA level, mean / SNAP25 mRNA level, mean / SOX2 mRNA level, mean / TRMT61A mRNA level, mean / WLS mRNA level, mean / NNAT mRNA level, mean / SERPINB9 mRNA level, mean: mean of 3 replicates. The protocol: as §1, with “mesoderm. […]” for “mesoderm.”
cDNA was synthesised using RevertAid Reverse Transcriptase (Thermo Fisher Scientific, EP0441) with synthesised random hexamer (Macrogen) for total RNA or stem-loop primers for miRNA. For RT-qPCR reactions, the SensiFAST SYBR No-ROX kit (Meridian Bioscience) was used according to the manufacturer’s protocol. All data analysis and visualisation were conducted using R 3.6.1 [www.r-project.org] or GraphPad Prism 10. RT primers for miRNA and RT-qPCR primer sequences are provided in Supplementary Data 6. […]
Scale bars, 100 μm . d (Corresponding to Fig. 6d) RT -qPCR was perform ed to evaluate the level of indicated transcripts upon the indicated peptide treatm ent in CHA15 cells. e T ranscriptom e analysis was perf orm ed using signif icantly changed transcripts (p < 0.05) f rom siLIN28A or siControl in the indicated CPP-peptide treated CHA15 cells. […]
5p and m iR-16- 5p was shown as CDF graphs. T he relative level of m RNA was norm alised to that of U6 snRNA in (c, d, and f). K–S tests were used for e and f. Unpaired Student’s t-test was used for c , d, and f . * p < 0.05, ** p < 0.01, *** p < 0.001. Exact p -values were provided in Source data. Data are presented as m ean values ± SEM. All statistical test used were two- sided. T he m inim um num ber of independent biological replicate experim ents was a and e n = 2, b–d and f n = 3. T he experim ents were conducted three tim es, each iteration producing consistent results.
(In qPCR the cycle at which signal appears reflects the starting amount.)

The mark [3] stands for this setting: unpaired t test, two-tailed, df=4.

Ends that are not written are not given here.

As for “KKKWCRKKKSSADEKRYRALKRTAERELLMNA [CPP-P8, CPP conjugated to P8]”, the “levels of OCT4 and NANOG” value in the assay on CHA15 cells [1] (CHA15, proliferative state) is “significantly decreased”.

For “N-QKLDQKELQLEPM-C [P1, reference compound]”, in the assay on CHA15 cells [1], the “NANOG-positive cells, fluorescence quantification, mean” value (shortened to “NANOG-positive cells”) worked out at 85.74 and the “OCT4-positive cells, fluorescence quantification, mean” value (“OCT4-positive cells” below) stood at 92.4. For the same substance, in the assay on CHA15 cells [2], the “DLK1 mRNA level, mean” value is listed as 1; the “FRZB mRNA level, mean” value is listed as 1; the “GLI2 mRNA level, mean” value stood at 1; the “MAPK7 mRNA level, mean” value is 1. Besides, in the assay with CHA15 cells [2], the “NANOG mRNA level, mean” value was found to be 1; the “PDZD4 mRNA level, mean” value was 1; the “POU5F1 mRNA level, mean” value was 1; the “SIX3 mRNA level, mean” value amounted to 1. Also, in the assay on CHA15 cells [2], the “SLC7A5 mRNA level, mean” value worked out at 1; the “SNAP25 mRNA level, mean” value stood at 1; the “SOX2 mRNA level, mean” value was 1; the “TRMT61A mRNA level, mean” value was determined as 1. Further, in the assay with CHA15 cells [2], the “WLS mRNA level, mean” value is 1.

As to “N-MPELQKLQQLKDE-C [P2, peptide derived from the UPF1 (419–700) domain]”, in the assay with CHA15 cells [1], the “NANOG-positive cells” value is 81.51; the “OCT4-positive cells” value is reported as 89.62; the “NANOG fluorescence, difference between means vs P1 ± SEM” value is listed as -4.223 ± 2.867; the “OCT4 fluorescence, difference between means vs P1 ± SEM” value is listed as -2.780 ± 1.262. Besides, in the assay on CHA15 cells [2], the “NNAT mRNA level, mean” value stood at 0.9363 and the “SERPINB9 mRNA level, mean” value stood at 0.9791. In addition, in the assay with CHA15 cells [2] (setting [3]), the “FRZB, difference between means ± SEM vs. P1” value was -0.02698 ± 0.06622; the “GLI2, difference between means ± SEM vs. P1” value is -0.05239 ± 0.08994; the “MAPK7, difference between means ± SEM vs. P1” value is on record as 0.03902 ± 0.06368; the “NNAT, difference between means ± SEM vs. P1” value is -0.06363 ± 0.1386. For the same substance, in the assay on CHA15 cells [2] (setting [3]), the “PDZD4, difference between means ± SEM vs. P1” value is reported as 0.05466 ± 0.04504; the “SERPINB9, difference between means ± SEM vs. P1” value is reported as -0.02067 ± 0.08291; the “SIX3, difference between means ± SEM vs. P1” value came to 0.1242 ± 0.09936; the “SLC7A5, difference between means ± SEM vs. P1” value was found to be 0.1166 ± 0.05272. Also, in the assay with CHA15 cells [2] (setting [3]), the “SNAP25, difference between means ± SEM vs. P1” value is on record as 0.01594 ± 0.05751; the “SOX2, difference between means ± SEM vs. P1” value is -0.1171 ± 0.06917; the “TRMT61A, difference between means ± SEM vs. P1” value came to 0.0576 ± 0.08417; the “WLS, difference between means ± SEM vs. P1” value is -0.1429 ± 0.08376.

With KKKWCRKKKSSADEKRYRALKRTAERELLMNA [P8], in the assay on CHA15 cells [1], the “NANOG-positive cells” value is listed as 14.24; the “OCT4-positive cells” value came to 22.84; the “NANOG fluorescence, difference between means vs P1 ± SEM” value is reported as -71.49 ± 1.616; the “OCT4 fluorescence, difference between means vs P1 ± SEM” value is given as -69.57 ± 2.939. Further, in the assay on CHA15 cells [2], the “DLK1 mRNA level, mean” value is given as 56.31; the “FRZB mRNA level, mean” value was found to be 8.725; the “GLI2 mRNA level, mean” value was found to be 0.6516; the “MAPK7 mRNA level, mean” value is on record as 0.7487. Also, in the assay on CHA15 cells [2], the “NANOG mRNA level, mean” value was determined as 0.4762; the “NNAT mRNA level, mean” value is 3.136; the “PDZD4 mRNA level, mean” value stood at 0.2348; the “POU5F1 mRNA level, mean” value is recorded as 0.5449. In the assay with CHA15 cells [2], the “SERPINB9 mRNA level, mean” value stood at 0.7287; the “SIX3 mRNA level, mean” value came to 16.62; the “SLC7A5 mRNA level, mean” value was 0.3065; the “SNAP25 mRNA level, mean” value was found to be 0.3657. Moreover, in the assay on CHA15 cells [2], the “SOX2 mRNA level, mean” value was determined as 1.107; the “TRMT61A mRNA level, mean” value was 0.5794; the “WLS mRNA level, mean” value stood at 7.117. Besides, in the assay with CHA15 cells [2] (setting [3]), the “DLK1, difference between means ± SEM vs. P1” value turned out to be 55.31 ± 2.539; the “FRZB, difference between means ± SEM vs. P1” value was found to be 7.724 ± 0.7174; the “GLI2, difference between means ± SEM vs. P1” value was -0.3484 ± 0.08883; the “MAPK7, difference between means ± SEM vs. P1” value is listed as -0.2513 ± 0.07831. In addition, in the assay with CHA15 cells [2] (setting [3]), the “NANOG, difference between means ± SEM vs. P1” value is given as -0.5239 ± 0.0638; the “NNAT, difference between means ± SEM vs. P1” value was 2.136 ± 0.5570; the “PDZD4, difference between means ± SEM vs. P1” value is -0.7652 ± 0.01959; the “POU5F1, difference between means ± SEM vs. P1” value is recorded as -0.4552 ± 0.05944. Moreover, in the assay with CHA15 cells [2] (setting [3]), the “SERPINB9, difference between means ± SEM vs. P1” value is recorded as -0.2711 ± 0.04259; the “SIX3, difference between means ± SEM vs. P1” value was 15.62 ± 1.865; the “SLC7A5, difference between means ± SEM vs. P1” value is -0.6935 ± 0.02913; the “SNAP25, difference between means ± SEM vs. P1” value is recorded as -0.6344 ± 0.08552. For the same substance, in the assay on CHA15 cells [2] (setting [3]), the “SOX2, difference between means ± SEM vs. P1” value is reported as 0.1072 ± 0.1176; the “TRMT61A, difference between means ± SEM vs. P1” value is reported as -0.4206 ± 0.05922; the “WLS, difference between means ± SEM vs. P1” value turned out to be 6.117 ± 0.3119.
